pIC50, pKi: −log10 of the molar value. Starred links: 1 amine or outer side, 2 acyl side, 3 side chain; linkers in the order of their positions; H or OH if unused. Non-standard residues stand in square brackets, D forms with d. Residues, ends and D or L forms follow the SMILES beside them. NMeAbu(3S-Me,4-OC2H4Mor) = CN[C@H](C(=O)O)[C@H](C)COCCN1CCOCC1; X16 = C[C@H](CN1CCN(S(C)(=O)=O)CC1)[C@@H](C(=O)[*:2])N(C)[*:1]; X7 = C[C@H](COCCN1CCS(=O)(=O)CC1)[C@@H](C(=O)[*:2])N(C)[*:1]; X5 = C[C@H](COC(=O)N1CCN(C)CC1)[C@@H](C(=O)[*:2])N(C)[*:1]; MeBmt = C/C=C/C[C@@H](C)[C@@H](O)[C@H](NC)C(=O)O; X2 = COCC[C@@H](C)[C@@H](C(=O)[*:2])N(C)[*:1]; NMeL = CN[C@@H](CC(C)C)C(=O)O; NMeV = CN[C@H](C(=O)O)C(C)C; dNMeA = CN[C@H](C)C(=O)O; Abu = CC[C@H](N)C(=O)O
Legend:
cyclophilin A (CypA) = cyclophilin A (CypA) (Homo sapiens (Human), UniProt P62937); experiment: Inhibitor binding to cyclophilin proteins by SPR, CypA; set-up: unit not given here; conditions: 1:1 binding model;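 also: Single-cycle kinetics on a Biacore T200, compound injected at several concentrations for 1 min each at 50 µL/min, then 10 min dissociation, in HEPES pH 7.4 buffer with 3% DMSO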
cyclophilin B (CypB) = cyclophilin B (CypB) (Homo sapiens (Human), UniProt P23284); experiment: Inhibitor binding to cyclophilin proteins by SPR, CypB; set-up: unit not given here; conditions: 1:1 binding model
Summary of the method: (§1)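 A 1:1 model fitted to single-cycle kinetic SPR data gave association and dissociation rates and KD. Compound series injected for 1 min each at 50 μL/min, then 10 min dissociation. Running buffer HEPES pH 7.4 with NaCl, P20 and 3% DMSO; target protein was biotinylated avi-tagged cyclophilin on a CAPture surface.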

CypF = CypF (Homo sapiens (Human), UniProt P30405); experiment: Inhibitor binding to cyclophilin proteins by SPR, CypF; conditions: 1:1 binding model
Summary of the method: as §1

[1] = system: genotype 1b subgenomic HCV replicon in Huh7.5 cells; assay type: cell-based, hepatitis C virus; conditions: genotype 1b replicon, 72 h incubation; read-out: RPLN-1b IC50
Summary of the method: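 Replicon inhibition read as renilla luciferase signal versus DMSO controls after 72 h incubation, in Huh7.5 cells harbouring a genotype 1b subgenomic replicon; medium phenol red-free DMEM lacking G418. CC50 determined in parallel via Cell Titer-Glo.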

[2] = system: peripheral blood mononuclear cells (PBMC); experiment: Anti-proliferative or immunosuppressive activity, BrdU incorporation in PHA-stimulated PBMC; assay type: cell-based; conditions: PHA 3 μg/ml, 60 hour compound treatment; read-out: EMV PBMC IC50
Summary of the method: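 BrdU ELISA read-out of DNA synthesis in freshly isolated PBMCs (two donors, 30,000 cells/well, X-VIVO 15). T-cell proliferation triggered with phytohemagglutinin at 3 μg/ml.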

Human MRP2 = Human MRP2 (Homo sapiens (Human), UniProt Q92887); experiment: MRP2 transporter vesicle assay; assay type: in vitro ADME
Protocol: Method 4: Measuring Hepatic Transporter Interactions […] […] MRP2 Assay: Human MRP2 inhibition was tested using a BD Gentest Transporter Vesicle Assay Kit. Inside-out vesicles were prepared from insect Sf9 cells infected with baculovirus expressing hMRP2. […] The percent remaining of ATP dependent uptake activity was calculated as uptake activity in the presence of inhibitor divided by the uptake activity in the absence of inhibitor.

[3] = biological target: organic anion transporting polypeptide 1B1 (OATP1B1) (Homo sapiens (Human), UniProt Q9Y6L6); experiment: OATP assay in CHO-OATP1B1 cells;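 also: inhibition of probe substrate uptake into the cells, ten minutes exposure, accumulated substrate read by fluorescence once cells were lysed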
CYP3A4 = CYP3A4 (Homo sapiens (Human), UniProt P08684); experiment: Time-dependent inhibition of CYP3A4;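 also: Two-step in vitro assay, kobs derived from residual CYP3A4 activity versus preincubation time per concentration, then kinact and KI by nonlinear fit of kobs against concentration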
Protocol: Method 5: Measuring Time-Dependent Inhibition of CYP3A4
The CYP3A4 time dependent inhibition potential of various inhibitors was determined by a two step in vitro assay. […] The inactivation rate constant (kobs) was obtained by plotting the activity remaining over pre-incubation time for each concentration of compound. The maximal inactivation rate (kinact) and the inactivation potency (KI) were calculated by non linear regression analysis of the inactivation rate constant (kobs) versus compound concentrations [I] curve according to the equation kobs=[kinact·[I]]/[KI+[I]]

HBV in HepG2215 cells = conditions: cited from earlier work

Chain of cyclophilin A (CypA) (P62937 whole entry): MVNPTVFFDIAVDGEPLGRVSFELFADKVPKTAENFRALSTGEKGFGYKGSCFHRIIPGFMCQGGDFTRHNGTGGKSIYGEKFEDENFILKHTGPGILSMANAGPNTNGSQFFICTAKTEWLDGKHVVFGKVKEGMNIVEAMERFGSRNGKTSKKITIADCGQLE
Chain of cyclophilin B (CypB) (P23284 34-216): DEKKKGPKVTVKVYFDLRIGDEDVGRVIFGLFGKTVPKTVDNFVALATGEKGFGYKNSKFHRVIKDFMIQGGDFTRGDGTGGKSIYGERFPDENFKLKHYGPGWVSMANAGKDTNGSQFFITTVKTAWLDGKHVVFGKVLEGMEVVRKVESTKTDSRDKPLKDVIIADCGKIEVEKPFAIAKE
Chain of Human MRP2 (Q92887 whole entry): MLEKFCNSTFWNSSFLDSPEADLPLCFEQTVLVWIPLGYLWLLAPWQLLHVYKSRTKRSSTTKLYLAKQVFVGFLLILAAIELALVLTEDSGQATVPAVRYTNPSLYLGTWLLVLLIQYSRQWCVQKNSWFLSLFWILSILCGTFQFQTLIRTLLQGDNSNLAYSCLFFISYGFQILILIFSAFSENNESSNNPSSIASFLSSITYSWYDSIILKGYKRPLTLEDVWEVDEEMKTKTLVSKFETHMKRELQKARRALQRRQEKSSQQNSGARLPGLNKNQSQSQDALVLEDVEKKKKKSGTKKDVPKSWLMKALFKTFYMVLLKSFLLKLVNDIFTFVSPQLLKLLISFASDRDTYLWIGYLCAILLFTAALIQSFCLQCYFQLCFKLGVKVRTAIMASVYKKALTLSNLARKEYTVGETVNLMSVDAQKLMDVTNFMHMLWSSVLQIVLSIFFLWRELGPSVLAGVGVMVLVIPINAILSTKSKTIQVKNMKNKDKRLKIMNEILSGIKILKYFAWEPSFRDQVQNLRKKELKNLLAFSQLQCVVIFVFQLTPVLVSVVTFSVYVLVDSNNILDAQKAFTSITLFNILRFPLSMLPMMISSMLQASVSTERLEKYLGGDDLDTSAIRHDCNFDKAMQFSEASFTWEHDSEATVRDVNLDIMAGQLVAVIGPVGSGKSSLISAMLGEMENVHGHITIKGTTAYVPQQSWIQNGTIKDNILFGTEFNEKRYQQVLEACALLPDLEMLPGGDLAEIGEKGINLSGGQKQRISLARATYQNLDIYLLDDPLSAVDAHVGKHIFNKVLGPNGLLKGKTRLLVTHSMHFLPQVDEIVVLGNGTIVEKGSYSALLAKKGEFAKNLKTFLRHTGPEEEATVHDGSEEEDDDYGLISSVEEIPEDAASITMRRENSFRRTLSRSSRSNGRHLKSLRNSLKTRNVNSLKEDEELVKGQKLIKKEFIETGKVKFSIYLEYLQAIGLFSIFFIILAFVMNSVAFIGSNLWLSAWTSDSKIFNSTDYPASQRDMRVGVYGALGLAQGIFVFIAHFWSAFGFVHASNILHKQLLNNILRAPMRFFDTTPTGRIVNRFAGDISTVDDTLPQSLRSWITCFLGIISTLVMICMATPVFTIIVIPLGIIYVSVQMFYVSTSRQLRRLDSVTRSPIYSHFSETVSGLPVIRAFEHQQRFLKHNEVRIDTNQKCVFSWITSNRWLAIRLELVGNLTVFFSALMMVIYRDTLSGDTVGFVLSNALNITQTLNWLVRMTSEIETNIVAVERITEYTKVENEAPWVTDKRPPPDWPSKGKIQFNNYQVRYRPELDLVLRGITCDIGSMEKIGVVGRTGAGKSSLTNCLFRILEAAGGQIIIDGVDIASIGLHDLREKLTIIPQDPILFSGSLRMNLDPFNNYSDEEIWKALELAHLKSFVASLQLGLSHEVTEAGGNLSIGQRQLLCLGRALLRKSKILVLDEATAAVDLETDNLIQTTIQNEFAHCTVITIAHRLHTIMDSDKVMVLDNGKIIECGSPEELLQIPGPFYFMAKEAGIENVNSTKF
Chain of CYP3A4 (P08684 whole entry): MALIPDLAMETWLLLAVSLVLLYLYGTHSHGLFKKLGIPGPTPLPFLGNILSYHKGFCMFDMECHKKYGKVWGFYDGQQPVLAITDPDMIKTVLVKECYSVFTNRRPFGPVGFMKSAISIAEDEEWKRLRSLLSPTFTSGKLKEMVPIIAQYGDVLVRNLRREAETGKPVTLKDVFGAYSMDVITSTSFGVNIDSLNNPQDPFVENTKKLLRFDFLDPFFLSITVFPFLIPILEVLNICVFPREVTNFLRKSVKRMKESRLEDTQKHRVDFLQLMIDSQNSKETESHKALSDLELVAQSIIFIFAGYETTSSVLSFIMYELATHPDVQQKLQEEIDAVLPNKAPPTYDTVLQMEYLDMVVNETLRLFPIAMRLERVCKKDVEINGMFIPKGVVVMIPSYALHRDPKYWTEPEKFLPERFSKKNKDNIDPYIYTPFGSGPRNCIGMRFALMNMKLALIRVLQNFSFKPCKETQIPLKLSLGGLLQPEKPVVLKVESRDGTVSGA
Chain of CypF (P30405 30-207): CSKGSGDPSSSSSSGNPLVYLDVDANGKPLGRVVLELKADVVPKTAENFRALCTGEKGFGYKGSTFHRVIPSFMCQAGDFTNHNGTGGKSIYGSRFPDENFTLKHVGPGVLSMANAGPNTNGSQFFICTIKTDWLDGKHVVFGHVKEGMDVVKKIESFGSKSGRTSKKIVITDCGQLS
Chain of organic anion transporting polypeptide 1B1 (OATP1B1) (Q9Y6L6 whole entry): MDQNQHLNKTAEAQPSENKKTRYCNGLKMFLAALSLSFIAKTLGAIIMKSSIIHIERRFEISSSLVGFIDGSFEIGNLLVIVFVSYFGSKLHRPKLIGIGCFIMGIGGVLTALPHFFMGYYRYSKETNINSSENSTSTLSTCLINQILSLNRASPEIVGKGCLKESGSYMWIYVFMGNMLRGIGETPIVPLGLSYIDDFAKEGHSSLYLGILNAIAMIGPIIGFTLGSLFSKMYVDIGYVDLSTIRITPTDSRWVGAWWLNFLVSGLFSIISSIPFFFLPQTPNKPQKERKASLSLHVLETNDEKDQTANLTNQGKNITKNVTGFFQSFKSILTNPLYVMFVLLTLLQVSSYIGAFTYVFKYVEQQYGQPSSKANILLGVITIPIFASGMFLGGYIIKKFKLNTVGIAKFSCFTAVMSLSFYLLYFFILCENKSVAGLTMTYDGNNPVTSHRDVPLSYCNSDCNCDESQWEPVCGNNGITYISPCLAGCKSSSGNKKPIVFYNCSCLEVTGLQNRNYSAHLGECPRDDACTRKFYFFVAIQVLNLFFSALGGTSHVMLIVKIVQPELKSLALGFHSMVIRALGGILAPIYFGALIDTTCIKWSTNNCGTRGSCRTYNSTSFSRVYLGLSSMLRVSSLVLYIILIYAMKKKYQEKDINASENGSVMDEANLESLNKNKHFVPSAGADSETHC

SMILES	CypA Kd (cyclophilin A (CypA))	CypB Kd (cyclophilin B (CypB))	CypF Kd (CypF)	pIC50 [1]	pIC50 [2]	pIC50 (Human MRP2)	pIC50 [3]	pKi (CYP3A4)	reduction of HBsAg secretion from cells compared with controls (HBV in HepG2215 cells)
C/C=C/C[C@@H](C)[C@@H](O)[C@H]1C(=O)N[C@@H](CC)C(=O)N(C)[C@H](C)C(=O)N(C)[C@@H]([C@H](C)CN2CCN(S(C)(=O)=O)CC2)C(=O)N[C@@H](C(C)C)C(=O)N(C)[C@@H](CC(C)C)C(=O)N[C@@H](C)C(=O)N[C@H](C)C(=O)N(C)[C@@H](CC(C)C)C(=O)N(C)[C@@H](CC(C)C)C(=O)N(C)[C@@H](C(C)C)C(=O)N1C [Compound 2.5.5, 3-[D-Ala]-4-[(2S,3R)-3-methyl-2-(methylamino)-4-(4-(methylsulfonyl)piperazin-1-yl)butanoyl]-cyclosporin] (cyclo(A[dA][NMeL][NMeL][NMeV][MeBmt][Abu][dNMeA][X16]V[NMeL]))	3.3	1.9	0.0017 µM	7.18	5.55	4.89	5.32	–	–
C/C=C/C[C@@H](C)[C@@H](O)[C@H]1C(=O)N[C@@H](CC)C(=O)N(C)[C@H](C)C(=O)N(C)[C@@H]([C@H](C)COC(=O)N2CCN(C)CC2)C(=O)N[C@@H](C(C)C)C(=O)N(C)[C@@H](CC(C)C)C(=O)N[C@@H](C)C(=O)N[C@H](C)C(=O)N(C)[C@@H](CC(C)C)C(=O)N(C)[C@@H](CC(C)C)C(=O)N(C)[C@@H](C(C)C)C(=O)N1C [Compound 2.5.9, 3-[D-Ala]-4-[(2S,3S)-3-methyl-2-(methylamino)-4-((4-methylpiperazine-1-carbonyl)oxy)butanoyl]-cyclosporin] (cyclo(A[dA][NMeL][NMeL][NMeV][MeBmt][Abu][dNMeA][X5]V[NMeL]))	0.8	0.5	0.0003 µM	7.05	4.75	4.68	5.17	< 4.30	–
C/C=C/C[C@@H](C)[C@@H](O)[C@H]1C(=O)N[C@@H](CC)C(=O)N(C)[C@H](C)C(=O)N(C)[C@@H]([C@H](C)COCCN2CCOCC2)C(=O)N[C@@H](C(C)C)C(=O)N(C)[C@@H](CC(C)C)C(=O)N[C@@H](C)C(=O)N[C@H](C)C(=O)N(C)[C@@H](CC(C)C)C(=O)N(C)[C@@H](CC(C)C)C(=O)N(C)[C@@H](C(C)C)C(=O)N1C [Compound 2.8.1, 3-[D-Ala]-4-[(2S,3S)-3-methyl-2-(methylamino)-4-(2-morpholinoethoxy)butanoyl]-cyclosporin] (cyclo(A[dA][NMeL][NMeL][NMeV][MeBmt][Abu][dNMeA][NMeAbu(3S-Me,4-OC2H4Mor)]V[NMeL]))	1.4	0.7	0.0007 µM	–	–	4.64	5.12	< 4.30	–
C/C=C/C[C@@H](C)[C@@H](O)[C@H]1C(=O)N[C@@H](CC)C(=O)N(C)[C@H](C)C(=O)N(C)[C@@H]([C@H](C)COCCN2CCS(=O)(=O)CC2)C(=O)N[C@@H](C(C)C)C(=O)N(C)[C@@H](CC(C)C)C(=O)N[C@@H](C)C(=O)N[C@H](C)C(=O)N(C)[C@@H](CC(C)C)C(=O)N(C)[C@@H](CC(C)C)C(=O)N(C)[C@@H](C(C)C)C(=O)N1C [Compound 2.8.2] (cyclo(A[dA][NMeL][NMeL][NMeV][MeBmt][Abu][dNMeA][X7]V[NMeL]))	1.6	0.6	0.0006 µM	–	–	4.55	5.52	–	–
C/C=C/C[C@@H](C)[C@@H](O)[C@H]1C(=O)N[C@@H](CC)C(=O)N(C)[C@H](C)C(=O)N(C)[C@@H]([C@H](C)CCOC)C(=O)N[C@@H](C(C)C)C(=O)N(C)[C@@H](CC(C)C)C(=O)N[C@@H](C)C(=O)N[C@H](C)C(=O)N(C)[C@@H](CC(C)C)C(=O)N(C)[C@@H](CC(C)C)C(=O)N(C)[C@@H](C(C)C)C(=O)N1C [Compound 2.13, 3-[D-Ala]-4-[(2S,3R)-5-methoxy-3-methyl-2-(methylamino)pentanoyl]-cyclosporin] (cyclo(A[dA][NMeL][NMeL][NMeV][MeBmt][Abu][dNMeA][X2]V[NMeL]))	1.7	0.8	0.0008 µM	7.39	5.59	4.89	5.64	< 4.30	–
C/C=C/C[C@@H](C)[C@@H](O)[C@H]1C(=O)N[C@@H](CC)C(=O)N(C)CC(=O)N(C)[C@@H]([C@@H](C)CC)C(=O)N[C@@H](C(C)C)C(=O)N(C)[C@@H](CC(C)C)C(=O)N[C@@H](C)C(=O)N[C@H](C)C(=O)N(C)[C@@H](CC(C)C)C(=O)N(C)[C@@H](CC(C)C)C(=O)N(C)[C@@H](C(C)C)C(=O)N1C [NIM811]	–	–	–	–	–	–	–	–	about 50%

Reference: patent US9566312B2, “Cyclic peptides and use as medicines” (priority 2012, dated 2017)
